Test: Stability of QC samples in rat plasma and tissue homogenates under different storage conditions
Type: in vitro ADME
Details: in % (unit assumed)

C/C=C1/COC(=O)[C@H]2C(=O)N3CCc4c([nH]c5ccccc45)[C@@H]3C[C@@H]12 [Naucleactonin C]
Accuracy, Ambient temperature for 4 h (Brain, 5 ng/mL): 106.35 ± 11.82 | Accuracy, Autosampler at 4°C for 8 h (Brain, 5 ng/mL): 109.83 ± 6.05 | Accuracy, Three freeze-thraw cycles (Brain, 5 ng/mL): 98.92 ± 10.65 | Accuracy, −80°C for 30 days (Brain, 5 ng/mL): 104.10 ± 10.88 | Accuracy, Ambient temperature for 4 h (Brain, 8 ng/mL): 88.87 ± 10.43 | Accuracy, Autosampler at 4°C for 8 h (Brain, 8 ng/mL): 90.65 ± 6.37 | Accuracy, Three freeze-thraw cycles (Brain, 8 ng/mL): 89.95 ± 9.23 | Accuracy, −80°C for 30 days (Brain, 8 ng/mL): 88.82 ± 10.57 | Accuracy, Ambient temperature for 4 h (Brain, 140 ng/mL): 88.33 ± 6.74 | Accuracy, Autosampler at 4°C for 8 h (Brain, 140 ng/mL): 87.92 ± 8.15 | Accuracy, Three freeze-thraw cycles (Brain, 140 ng/mL): 87.20 ± 4.98 | Accuracy, −80°C for 30 days (Brain, 140 ng/mL): 87.93 ± 5.81 | Accuracy, Ambient temperature for 4 h (Brain, 2400 ng/mL): 99.43 ± 6.38 | Accuracy, Autosampler at 4°C for 8 h (Brain, 2400 ng/mL): 112.67 ± 6.62 | Accuracy, Three freeze-thraw cycles (Brain, 2400 ng/mL): 109.67 ± 6.44 | Accuracy, −80°C for 30 days (Brain, 2400 ng/mL): 109.00 ± 5.22 | Accuracy, Ambient temperature for 4 h (Heart, 5 ng/mL): 111.97 ± 11.63 | Accuracy, Autosampler at 4°C for 8 h (Heart, 5 ng/mL): 100.78 ± 9.63 | Accuracy, Three freeze-thraw cycles (Heart, 5 ng/mL): 107.98 ± 9.45 | Accuracy, −80°C for 30 days (Heart, 5 ng/mL): 107.42 ± 10.24 | Accuracy, Ambient temperature for 4 h (Heart, 8 ng/mL): 110.50 ± 4.42 | Accuracy, Autosampler at 4°C for 8 h (Heart, 8 ng/mL): 107.25 ± 9.25 | Accuracy, Three freeze-thraw cycles (Heart, 8 ng/mL): 109.08 ± 8.25 | Accuracy, −80°C for 30 days (Heart, 8 ng/mL): 110.87 ± 9.04 | Accuracy, Ambient temperature for 4 h (Heart, 140 ng/mL): 102.78 ± 6.89 | Accuracy, Autosampler at 4°C for 8 h (Heart, 140 ng/mL): 104.88 ± 3.80 | Accuracy, Three freeze-thraw cycles (Heart, 140 ng/mL): 100.40 ± 9.13 | Accuracy, −80°C for 30 days (Heart, 140 ng/mL): 98.28 ± 5.70 | Accuracy, Ambient temperature for 4 h (Heart, 2400 ng/mL): 112.33 ± 10.41 | Accuracy, Autosampler at 4°C for 8 h (Heart, 2400 ng/mL): 111.50 ± 5.68 | Accuracy, Three freeze-thraw cycles (Heart, 2400 ng/mL): 112.33 ± 5.72 | Accuracy, −80°C for 30 days (Heart, 2400 ng/mL): 110.50 ± 4.81 | Accuracy, Ambient temperature for 4 h (Kidney, 5 ng/mL): 109.33 ± 7.55 | Accuracy, Autosampler at 4°C for 8 h (Kidney, 5 ng/mL): 106.08 ± 8.96 | Accuracy, Three freeze-thraw cycles (Kidney, 5 ng/mL): 98.92 ± 9.91 | Accuracy, −80°C for 30 days (Kidney, 5 ng/mL): 97.18 ± 10.46 | Accuracy, Ambient temperature for 4 h (Kidney, 8 ng/mL): 99.10 ± 4.24 | Accuracy, Autosampler at 4°C for 8 h (Kidney, 8 ng/mL): 97.38 ± 7.31 | Accuracy, Three freeze-thraw cycles (Kidney, 8 ng/mL): 91.10 ± 9.20 | Accuracy, −80°C for 30 days (Kidney, 8 ng/mL): 94.77 ± 7.62 | Accuracy, Ambient temperature for 4 h (Kidney, 140 ng/mL): 96.08 ± 7.36 | Accuracy, Autosampler at 4°C for 8 h (Kidney, 140 ng/mL): 95.43 ± 7.99 | Accuracy, Three freeze-thraw cycles (Kidney, 140 ng/mL): 101.10 ± 4.98 | Accuracy, −80°C for 30 days (Kidney, 140 ng/mL): 100.25 ± 8.25 | Accuracy, Ambient temperature for 4 h (Kidney, 2400 ng/mL): 108.00 ± 5.62 | Accuracy, Autosampler at 4°C for 8 h (Kidney, 2400 ng/mL): 103.87 ± 4.68 | Accuracy, Three freeze-thraw cycles (Kidney, 2400 ng/mL): 104.57 ± 6.09 | Accuracy, −80°C for 30 days (Kidney, 2400 ng/mL): 102.30 ± 5.90 | Accuracy, Ambient temperature for 4 h (Liver, 5 ng/mL): 101.78 ± 11.83 | Accuracy, Autosampler at 4°C for 8 h (Liver, 5 ng/mL): 107.70 ± 5.36 | Accuracy, Three freeze-thraw cycles (Liver, 5 ng/mL): 98.32 ± 6.66 | Accuracy, −80°C for 30 days (Liver, 5 ng/mL): 98.38 ± 12.07 | Accuracy, Ambient temperature for 4 h (Liver, 8 ng/mL): 87.60 ± 5.90 | Accuracy, Autosampler at 4°C for 8 h (Liver, 8 ng/mL): 86.47 ± 4.52 | Accuracy, Three freeze-thraw cycles (Liver, 8 ng/mL): 90.60 ± 4.91 | Accuracy, −80°C for 30 days (Liver, 8 ng/mL): 86.00 ± 8.60 | Accuracy, Ambient temperature for 4 h (Liver, 140 ng/mL): 88.57 ± 2.44 | Accuracy, Autosampler at 4°C for 8 h (Liver, 140 ng/mL): 95.00 ± 4.15 | Accuracy, Three freeze-thraw cycles (Liver, 140 ng/mL): 96.28 ± 4.36 | Accuracy, −80°C for 30 days (Liver, 140 ng/mL): 97.32 ± 7.17 | Accuracy, Ambient temperature for 4 h (Liver, 2400 ng/mL): 98.93 ± 3.81 | Accuracy, Autosampler at 4°C for 8 h (Liver, 2400 ng/mL): 91.37 ± 2.51 | Accuracy, Three freeze-thraw cycles (Liver, 2400 ng/mL): 89.35 ± 3.70 | Accuracy, −80°C for 30 days (Liver, 2400 ng/mL): 89.97 ± 7.32 | Accuracy, Ambient temperature for 4 h (Lung, 5 ng/mL): 109.50 ± 11.47 | Accuracy, Autosampler at 4°C for 8 h (Lung, 5 ng/mL): 100.40 ± 10.26 | Accuracy, Three freeze-thraw cycles (Lung, 5 ng/mL): 101.05 ± 5.33 | Accuracy, −80°C for 30 days (Lung, 5 ng/mL): 95.98 ± 10.47 | Accuracy, Ambient temperature for 4 h (Lung, 8 ng/mL): 94.73 ± 8.92 | Accuracy, Autosampler at 4°C for 8 h (Lung, 8 ng/mL): 91.40 ± 9.71 | Accuracy, Three freeze-thraw cycles (Lung, 8 ng/mL): 101.90 ± 10.45 | Accuracy, −80°C for 30 days (Lung, 8 ng/mL): 99.03 ± 10.49 | Accuracy, Ambient temperature for 4 h (Lung, 140 ng/mL): 102.38 ± 4.12 | Accuracy, Autosampler at 4°C for 8 h (Lung, 140 ng/mL): 94.45 ± 5.92 | Accuracy, Three freeze-thraw cycles (Lung, 140 ng/mL): 93.75 ± 8.53 | Accuracy, −80°C for 30 days (Lung, 140 ng/mL): 92.58 ± 3.60 | Accuracy, Ambient temperature for 4 h (Lung, 2400 ng/mL): 111.37 ± 9.27 | Accuracy, Autosampler at 4°C for 8 h (Lung, 2400 ng/mL): 111.85 ± 9.53 | Accuracy, −80°C for 30 days (Lung, 2400 ng/mL): 111.67 ± 3.39 | Accuracy, Ambient temperature for 4 h (Plasma, 5 ng/mL): 101.95 ± 10.33 | Accuracy, Autosampler at 4°C for 8 h (Plasma, 5 ng/mL): 106.67 ± 10.88 | Accuracy, Three freeze-thraw cycles (Plasma, 5 ng/mL): 91.87 ± 8.63 | Accuracy, −80°C for 30 days (Plasma, 5 ng/mL): 109.57 ± 12.66 | Accuracy, Ambient temperature for 4 h (Plasma, 8 ng/mL): 108.88 ± 1.87 | Accuracy, Autosampler at 4°C for 8 h (Plasma, 8 ng/mL): 105.01 ± 6.32 | Accuracy, Three freeze-thraw cycles (Plasma, 8 ng/mL): 105.88 ± 1.87 | Accuracy, −80°C for 30 days (Plasma, 8 ng/mL): 113.33 ± 5.32 | Accuracy, Ambient temperature for 4 h (Plasma, 140 ng/mL): 87.67 ± 9.20 | Accuracy, Autosampler at 4°C for 8 h (Plasma, 140 ng/mL): 87.88 ± 4.14 | Accuracy, Three freeze-thraw cycles (Plasma, 140 ng/mL): 111.88 ± 1.87 | Accuracy, −80°C for 30 days (Plasma, 140 ng/mL): 111.57 ± 9.60 | Accuracy, Ambient temperature for 4 h (Plasma, 2400 ng/mL): 88.93 ± 6.01 | Accuracy, Autosampler at 4°C for 8 h (Plasma, 2400 ng/mL): 89.25 ± 7.58 | Accuracy, Three freeze-thraw cycles (Plasma, 2400 ng/mL): 89.17 ± 7.49 | Accuracy, −80°C for 30 days (Plasma, 2400 ng/mL): 113.83 ± 7.14 | Accuracy, Ambient temperature for 4 h (Small intestine, 5 ng/mL): 111.90 ± 12.07 | Accuracy, Autosampler at 4°C for 8 h (Small intestine, 5 ng/mL): 111.67 ± 8.14 | Accuracy, Three freeze-thraw cycles (Small intestine, 5 ng/mL): 111.17 ± 8.33 | Accuracy, −80°C for 30 days (Small intestine, 5 ng/mL): 112.67 ± 8.78 | Accuracy, Ambient temperature for 4 h (Small intestine, 8 ng/mL): 103.33 ± 3.39 | Accuracy, Autosampler at 4°C for 8 h (Small intestine, 8 ng/mL): 100.03 ± 11.46 | Accuracy, Three freeze-thraw cycles (Small intestine, 8 ng/mL): 100.60 ± 10.24 | Accuracy, −80°C for 30 days (Small intestine, 8 ng/mL): 104.25 ± 9.49 | Accuracy, Ambient temperature for 4 h (Small intestine, 140 ng/mL): 88.60 ± 9.48 | Accuracy, Autosampler at 4°C for 8 h (Small intestine, 140 ng/mL): 89.80 ± 8.30 | Accuracy, Three freeze-thraw cycles (Small intestine, 140 ng/mL): 87.88 ± 5.57 | Accuracy, −80°C for 30 days (Small intestine, 140 ng/mL): 90.17 ± 7.26 | Accuracy, Ambient temperature for 4 h (Small intestine, 2400 ng/mL): 107.48 ± 8.23 | Accuracy, Autosampler at 4°C for 8 h (Small intestine, 2400 ng/mL): 103.75 ± 6.68 | Accuracy, Three freeze-thraw cycles (Small intestine, 2400 ng/mL): 108.43 ± 8.65 | Accuracy, −80°C for 30 days (Small intestine, 2400 ng/mL): 102.32 ± 8.65 | Accuracy, Ambient temperature for 4 h (Spleen, 5 ng/mL): 110.33 ± 8.71 | Accuracy, Autosampler at 4°C for 8 h (Spleen, 5 ng/mL): 112.92 ± 8.72 | Accuracy, Three freeze-thraw cycles (Spleen, 5 ng/mL): 110.67 ± 8.57 | Accuracy, −80°C for 30 days (Spleen, 5 ng/mL): 109.68 ± 12.57 | Accuracy, Ambient temperature for 4 h (Spleen, 8 ng/mL): 99.28 ± 13.31 | Accuracy, Autosampler at 4°C for 8 h (Spleen, 8 ng/mL): 93.42 ± 8.00 | Accuracy, Three freeze-thraw cycles (Spleen, 8 ng/mL): 96.13 ± 11.98 | Accuracy, −80°C for 30 days (Spleen, 8 ng/mL): 101.90 ± 10.25 | Accuracy, Ambient temperature for 4 h (Spleen, 140 ng/mL): 93.13 ± 6.10 | Accuracy, Autosampler at 4°C for 8 h (Spleen, 140 ng/mL): 95.27 ± 7.08 | Accuracy, Three freeze-thraw cycles (Spleen, 140 ng/mL): 89.18 ± 8.23 | Accuracy, −80°C for 30 days (Spleen, 140 ng/mL): 92.35 ± 2.70 | Accuracy, Ambient temperature for 4 h (Spleen, 2400 ng/mL): 103.33 ± 8.37 | Accuracy, Autosampler at 4°C for 8 h (Spleen, 2400 ng/mL): 105.67 ± 8.50 | Accuracy, Three freeze-thraw cycles (Spleen, 2400 ng/mL): 107.73 ± 8.10 | Accuracy, −80°C for 30 days (Spleen, 2400 ng/mL): 109.83 ± 4.96 | Accuracy, Ambient temperature for 4 h (Stomach, 5 ng/mL): 111.00 ± 7.90 | Accuracy, Autosampler at 4°C for 8 h (Stomach, 5 ng/mL): 112.17 ± 7.25 | Accuracy, Three freeze-thraw cycles (Stomach, 5 ng/mL): 113.12 ± 9.97 | Accuracy, −80°C for 30 days (Stomach, 5 ng/mL): 113.83 ± 2.99 | Accuracy, Ambient temperature for 4 h (Stomach, 8 ng/mL): 107.32 ± 12.96 | Accuracy, Autosampler at 4°C for 8 h (Stomach, 8 ng/mL): 98.37 ± 10.75 | Accuracy, Three freeze-thraw cycles (Stomach, 8 ng/mL): 105.90 ± 9.13 | Accuracy, −80°C for 30 days (Stomach, 8 ng/mL): 103.55 ± 9.49 | Accuracy, Ambient temperature for 4 h (Stomach, 140 ng/mL): 88.15 ± 7.91 | Accuracy, Autosampler at 4°C for 8 h (Stomach, 140 ng/mL): 86.38 ± 8.38 | Accuracy, Three freeze-thraw cycles (Stomach, 140 ng/mL): 87.12 ± 5.24 | Accuracy, −80°C for 30 days (Stomach, 140 ng/mL): 88.28 ± 6.31 | Accuracy, Ambient temperature for 4 h (Stomach, 2400 ng/mL): 100.53 ± 7.29 | Accuracy, Autosampler at 4°C for 8 h (Stomach, 2400 ng/mL): 99.52 ± 5.85 | Accuracy, Three freeze-thraw cycles (Stomach, 2400 ng/mL): 104.90 ± 5.53 | Accuracy, −80°C for 30 days (Stomach, 2400 ng/mL): 102.32 ± 8.22
